In one assay the target is T1, CXXC5-DVL interaction (Homo sapiens, UniProt O14640).
T1 construct: 5 mg/ml purified DVL PDZ domain was incubated in each well
T1 sequence (O14640 251-323 limits assumed): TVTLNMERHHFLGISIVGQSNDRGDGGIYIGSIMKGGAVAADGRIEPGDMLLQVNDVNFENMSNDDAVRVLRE
Kind of assay: In vitro CXXC5-DVL binding assay (FITC-tagged PTD-DBMP on DVL PDZ domain). As to conditions: compound 30 μM; fluorescent intensity normalized to DMSO-treated control; read-out: CXXC5-DVL interaction (%). How it is done:
Screening for compounds that inhibit the CXXC5-DVL interaction. […] Briefly, 5 mg/ml purified DVL PDZ domain was incubated in each well of a 96-well Maxibinding Immunoplate (SPL) at 4° C. for 16 hours. After the addition of 10 μM FITC-tagged PTD-DBMP to each well, each compound in the chemical library or control (DMSO) was treated to the well at a final concentration of 30 μM. The fluorescence intensity was measured using a Fluorstar Optima microplate reader (BGM Lab Technologies, Ortenberg, Germany). The binding values were calculated as a percent ratio of the fluorescent intensity normalized to the DMSO-treated control.
Consider `COc1ccc(C)cc1/N=N/c1ccc(O)c2nc(/C=N/O)ccc12` [Compound 1], for which the remaining activity at 30 µM came to 7.62%. On the same count and under the same terms, in the case of `COc1ccc(C2CC(C(F)(F)F)n3ncc(C(=O)O)c3N2)cc1OC` (centres unmarked) [Compound 2] it was 1.01%. The same measure, in the same setting: in the case of `Cc1cc(C)c2c(O)nc(SCC(=O)c3ccc(O)c(O)c3)nc2n1` [Compound 3] it was 4.01%; in that of `COC(=O)C1=C(C)N/C(=C/c2cc(C)n(-c3ccccc3F)c2C)C1=O` [Compound 4], 4.76%; in that of `O=C(O)C1Sc2[nH]c(=O)sc2C2c3cc(Br)cc(Br)c3OC(=O)C12` (centres unmarked) [Compound 5], 1.19%. Still for that read-out and setting: to `CCN(CC)S(=O)(=O)c1ccc(OC)c(Nc2cc(-c3ccccc3)nc(C)n2)c1` [Compound 6] belongs 7.63%; to `COc1ccc(C2CC(=O)C3=C(C2)Nc2onc(C)c2C3c2ccc(O)c(O)c2)cc1OC` (centres unmarked) [Compound 7], 0.72%; to `CN1CCc2cc(O)cc3c2[C@H]1Cc1ccc(O)c(O)c1-3` [Compound 9], 2.5%. As to `O=c1cc(O)cc(/C=C/c2ccc(O)c(O)c2)o1` [Compound 11], the remaining activity at 30 µM stood at 1.73%. The same measure, in the same setting: to `O=C1Nc2ccccc2/C1=C1/Nc2ccccc2/C1=N\O` [Compound 12, indirubin-3′-oxime, reference compound] belongs 7.65%. Same read-out and setting: to `O=c1c(O)c(-c2cc(O)c(O)c(O)c2)oc2cc(O)cc(O)c12` [Compound 13] belongs 7.66%; to `CC(N)(Cc1ccc(O)c(O)c1)C(=O)O` (centres unmarked) [Compound 14], 7.65%; to `O=c1c(O)c(-c2ccc(O)cc2O)oc2cc(O)cc(O)c12` [Compound 15], 7.43%. Consider `Oc1cc(O)cc(/C=C/c2ccc(O)c(O)c2)c1` [Compound 17], for which the remaining activity at 30 µM is 7.61%. The same measure, in the same setting: in the case of `O=C(OCCN1CCOCC1)C1(c2ccccc2)CCCCC1` [Compound 18] it was 5.7%.

Staying with this assay, now noted: read-out: CXXC5-DVL interaction (%).
In the case of `NC(Cc1cc(O)c(O)cc1O)C(=O)O` (centres unmarked) [Compound 10], the remaining activity at 30 µM turned out to be 1.39%.

Regarding `CN(C)c1ccc(O)c2c1C[C@H]1C[C@H]3[C@H](N(C)C)C(O)=C(C(N)=O)C(=O)[C@@]3(O)C(O)=C1C2=O` [Compound 16], the remaining activity at 30 µM was found to be 4.37%.

Source of the values: patent publication US20210323918A1, “COMPOSITIONS AND METHODS FOR SUPPRESSING AND/OR TREATING A GROWTH RELATED DISEASE AND/OR A CLINICAL CONDITION THEREOF” (CK Biotech Inc., priority 2018, published 2021).
